From patent US20120258980A1, “Antibacterial Agent for Drug-Resistant Bacteria, Method for Screening for Same, and Use of Same” (priority 2009, published 2012)
In brackets after ≈: the same amount, converted by molar mass. Where a name gives a salt, the structure may show the parent alone. Read-outs that look alike come from different tables or passages of the source.

Experiments:
[1] = tested on: MRSA, CA-MRSA and MSSA of Staphylococcus aureus; experiment: MIC measurement, Test Example 4 (MRSA, CA-MRSA and MSSA strains); assay type: cell-based; details: Staphylococcus aureus
Experimental: Each of the bacterial strains listed in Table 1-1 was shake-cultured at 37° C. overnight in 4 mL of a medium (Tryptical Soy Broth: TSB, product of Becton Dickinson and Company). FDA209P was used as a control.
After completion of culturing, the resultant culture was suspended in a cation-adjusted Mueller Hinton Broth (CAMHB, product of Becton Dickinson and Company). Then, the obtained bacterial culture was adjusted in absorbance with the CAMHB so that the absorbance at 578 nm of the bacterial culture was adjusted to 0.3 measured by an absorption spectrometer. In addition, the resultant bacterial culture was 500-fold diluted with the CAMHB.
Each of the 500-fold diluted, pre-cultured bacterial cultures was added at 50 μL/well to the CAMHB containing the quinolones and the nybomycins at various concentrations (50 μL/well), followed by statically culturing at 37° C. overnight.
After completion of culturing, the growth of the bacteria was visually determined based on turbidity to measure MIC in each bacterial strain.
Glycopeptides, imipenem, quinolones and nybomycins were studied for antibacterial activity against the bacterial strains listed in Table 2-1; i.e., MRSA, CA-MRSA and MSSA of Staphylococcus aureus.

[2] = tested on: VRSA clinical isolates; details: based on NARSA, cited from earlier work
[3] = ATCC 29213 / MRSA / MSSA, ATCC 29213, MSSA
[4] = FDA209P / MRSA / MSSA, FDA209P, MSSA
[5] = MRSA / MSSA / NCTC 8325, NCTC 8325, MSSA
[6] = MRSA / MSSA / USA300, USA300 FPR3757, CA-MRSA

Structure (SMILES) | MIC [1, 3] | MIC ([1]; COL, MRSA) | MIC [1, 4] | MIC ([1]; ISA12-1, MRSA) | MIC ([1]; ISA12-2, MRSA) | MIC ([1]; ISA35-1, MRSA) | MIC ([1]; ISA37-1, MSSA) | MIC ([1]; ISA49-1, MSSA) | MIC ([1]; ISA51-1, MSSA) | MIC ([1]; ISA56-3, MRSA) | MIC ([1]; ISA58-1, MRSA) | MIC ([1]; ISA62-1, MRSA) | MIC ([1]; ISA73-1, MSSA) | MIC ([1]; KBSA32, MRSA) | MIC ([1]; KBSA34, MRSA) | MIC ([1]; KBSA72, MRSA) | MIC ([1]; KBSA96, MRSA) | MIC ([1]; KBSA171, MRSA) | MIC ([1]; KSA24, MRSA) | MIC ([1]; KSA31, MRSA) | further results
CC1COc2c(N3CCN(C)CC3)c(F)cc3c(=O)c(C(=O)O)cn1c23 (stereo not shown) [OFLX, ofloxacin] | 0.25 µg/mL (≈ 0.692 µM) | 0.5 µg/mL (≈ 1.38 µM) | 0.125 µg/mL (≈ 0.346 µM) | 0.5 µg/mL (≈ 1.38 µM) | 0.5 µg/mL (≈ 1.38 µM) | 2 µg/mL (≈ 5.53 µM) | 0.25 µg/mL (≈ 0.692 µM) | 0.25 µg/mL (≈ 0.692 µM) | 0.5 µg/mL (≈ 1.38 µM) | 0.5 µg/mL (≈ 1.38 µM) | 0.5 µg/mL (≈ 1.38 µM) | 0.25 µg/mL (≈ 0.692 µM) | 0.25 µg/mL (≈ 0.692 µM) | 0.25 µg/mL (≈ 0.692 µM) | 0.5 µg/mL (≈ 1.38 µM) | > 128 µg/mL | 16 µg/mL (≈ 44.3 µM) | 32 µg/mL (≈ 88.6 µM) | 32 µg/mL (≈ 88.6 µM) | 8 µg/mL (≈ 22.1 µM) | MIC ([1]; KSA36, MRSA): > 128 µg/mL; MIC [1, 5]: 0.25 µg/mL (≈ 0.692 µM); MIC [1, 6]: 16 µg/mL (≈ 44.3 µM); MIC ([1]; MW2, CA-MRSA): 0.5 µg/mL (≈ 1.38 µM); MIC ([1]; N315, MRSA): 0.25 µg/mL (≈ 0.692 µM)
Cc1onc(-c2ccccc2)c1C(=O)N[C@@H]1C(=O)N2[C@@H]1SC(C)(C)[C@@H]2C(=O)O [OXA, oxacillin] | 0.25 µg/mL (≈ 0.623 µM) | > 16 µg/mL | ≤ 0.063 µg/mL | 4 µg/mL (≈ 9.96 µM) | 4 µg/mL (≈ 9.96 µM) | 4 µg/mL (≈ 9.96 µM) | 2 µg/mL (≈ 4.98 µM) | 1 µg/mL (≈ 2.49 µM) | 1 µg/mL (≈ 2.49 µM) | 8 µg/mL (≈ 19.9 µM) | 4 µg/mL (≈ 9.96 µM) | 8 µg/mL (≈ 19.9 µM) | 1 µg/mL (≈ 2.49 µM) | 8 µg/mL (≈ 19.9 µM) | 16 µg/mL (≈ 39.9 µM) | 128 µg/mL (≈ 319 µM) | 128 µg/mL (≈ 319 µM) | > 128 µg/mL | 128 µg/mL (≈ 319 µM) | 128 µg/mL (≈ 319 µM) | MIC ([1]; KSA36, MRSA): > 128 µg/mL; MIC [1, 5]: 1 µg/mL (≈ 2.49 µM); MIC [1, 6]: 16 µg/mL (≈ 39.9 µM); MIC ([1]; MW2, CA-MRSA): 8 µg/mL (≈ 19.9 µM); MIC ([1]; N315, MRSA): 32 µg/mL (≈ 79.7 µM); MIC ([2]; VRS1, VRSA, Michigan): >16 µg/mL; MIC ([2]; VRS2, VRSA, Pennsylvania): >16 µg/mL; MIC ([2]; VRS3, VRSA, New York): >16 µg/mL; MIC ([2]; VRS4, VRSA, New York): >16 µg/mL; MIC ([2]; VRS5, VRSA, Michigan): >16 µg/mL; MIC ([2]; VRS6, VRSA, Michigan): >16 µg/mL; MIC ([2]; VRS7, VRSA, Michigan): 8 µg/mL (≈ 19.9 µM)
C[C@@H]1CN(c2c(F)c(N)c3c(=O)c(C(=O)O)cn(C4CC4)c3c2F)C[C@H](C)N1 [SPFX, sparfloxacin] | ≤ 0.063 µg/mL | 0.25 µg/mL (≈ 0.637 µM) | ≤ 0.063 µg/mL | 0.125 µg/mL (≈ 0.319 µM) | 0.125 µg/mL (≈ 0.319 µM) | 0.125 µg/mL (≈ 0.319 µM) | 0.125 µg/mL (≈ 0.319 µM) | ≤ 0.063 µg/mL | 0.125 µg/mL (≈ 0.319 µM) | 0.125 µg/mL (≈ 0.319 µM) | 0.5 µg/mL (≈ 1.27 µM) | ≤ 0.063 µg/mL | ≤ 0.063 µg/mL | ≤ 0.063 µg/mL | 0.125 µg/mL (≈ 0.319 µM) | 128 µg/mL (≈ 326 µM) | 16 µg/mL (≈ 40.8 µM) | 16 µg/mL (≈ 40.8 µM) | 16 µg/mL (≈ 40.8 µM) | 8 µg/mL (≈ 20.4 µM) | MIC ([1]; KSA36, MRSA): 128 µg/mL (≈ 326 µM); MIC [1, 5]: 0.125 µg/mL (≈ 0.319 µM); MIC [1, 6]: 8 µg/mL (≈ 20.4 µM); MIC ([1]; MW2, CA-MRSA): ≤ 0.063 µg/mL; MIC ([1]; N315, MRSA): ≤ 0.063 µg/mL
NC1CCN(c2nc3c(cc2F)c(=O)c(C(=O)O)cn3-c2ccc(F)cc2F)C1 (stereo not shown) [TFLX, tosufloxacin tosylate] | ≤ 0.063 µg/mL | 0.125 µg/mL | ≤ 0.063 µg/mL | ≤ 0.063 µg/mL | ≤ 0.063 µg/mL | 0.25 µg/mL | ≤ 0.063 µg/mL | ≤ 0.063 µg/mL | ≤ 0.063 µg/mL | ≤ 0.063 µg/mL | 0.5 µg/mL | ≤ 0.063 µg/mL | ≤ 0.063 µg/mL | ≤ 0.063 µg/mL | ≤ 0.063 µg/mL | > 128 µg/mL | 16 µg/mL | 8 µg/mL | 8 µg/mL | 4 µg/mL | MIC ([1]; KSA36, MRSA): > 128 µg/mL; MIC [1, 5]: ≤ 0.063 µg/mL; MIC [1, 6]: 16 µg/mL; MIC ([1]; MW2, CA-MRSA): ≤ 0.063 µg/mL; MIC ([1]; N315, MRSA): ≤ 0.063 µg/mL
CN[C@H](CC(C)C)C(=O)N[C@H]1C(=O)N[C@@H](CC(N)=O)C(=O)N[C@H]2C(=O)N[C@H]3C(=O)N[C@H](C(=O)N[C@H](C(=O)O)c4cc(O)cc(O)c4-c4cc3ccc4O)[C@H](O)c3ccc(c(Cl)c3)Oc3cc2cc(c3O[C@@H]2O[C@H](CO)[C@@H](O)[C@H](O)[C@H]2O[C@H]2C[C@](C)(N)[C@H](O)[C@H](C)O2)Oc2ccc(cc2Cl)[C@H]1O [VCM, vancomycin] | 0.5 µg/mL (≈ 0.345 µM) | 0.5 µg/mL (≈ 0.345 µM) | 0.5 µg/mL (≈ 0.345 µM) | 0.5 µg/mL (≈ 0.345 µM) | 0.5 µg/mL (≈ 0.345 µM) | 1 µg/mL (≈ 0.69 µM) | 1 µg/mL (≈ 0.69 µM) | 1 µg/mL (≈ 0.69 µM) | 1 µg/mL (≈ 0.69 µM) | 2 µg/mL (≈ 1.38 µM) | 1 µg/mL (≈ 0.69 µM) | 1 µg/mL (≈ 0.69 µM) | 1 µg/mL (≈ 0.69 µM) | 0.5 µg/mL (≈ 0.345 µM) | 1 µg/mL (≈ 0.69 µM) | 1 µg/mL (≈ 0.69 µM) | 1 µg/mL (≈ 0.69 µM) | 1 µg/mL (≈ 0.69 µM) | 1 µg/mL (≈ 0.69 µM) | 1 µg/mL (≈ 0.69 µM) | MIC ([1]; KSA36, MRSA): 1 µg/mL (≈ 0.69 µM); MIC [1, 5]: 1 µg/mL (≈ 0.69 µM); MIC [1, 6]: 1 µg/mL (≈ 0.69 µM); MIC ([1]; MW2, CA-MRSA): 0.5 µg/mL (≈ 0.345 µM); MIC ([1]; N315, MRSA): 0.5 µg/mL (≈ 0.345 µM); MIC ([2]; VRS1, VRSA, Michigan): >256 µg/mL; MIC ([2]; VRS2, VRSA, Pennsylvania): 64 µg/mL (≈ 44.2 µM); MIC ([2]; VRS3, VRSA, New York): >32 µg/mL; MIC ([2]; VRS4, VRSA, New York): >32 µg/mL; MIC ([2]; VRS5, VRSA, Michigan): >256 µg/mL; MIC ([2]; VRS6, VRSA, Michigan): >256 µg/mL; MIC ([2]; VRS7, VRSA, Michigan): >256 µg/mL
